This note sets out measurements from US20110086759A1, “CHEMICAL COMPOUNDS” (SYNGENTA CROP PROTECTION, INC., priority 2007, published 2011).

Common to all, as to type: in vivo
The test system of experiment [1] is Amaranthus retoflexus (AMARE). Briefly: Post-emergence biological efficacy, glasshouse pot test. Particulars: Amaranthus retroflexus, 312 h; post-emergence, 1,000 g/ha, evaluated after 13 days (100=total damage; 0=no damage); read-out: Percentage damage caused to weed species, AMARE. In outline: (§1)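 Plants were sown in standard soil and grown 8 days in a glasshouse (24/16° C. day/night, 14 hours light, 65% humidity), then sprayed post-emergence at 1000 or 250 g/ha from acetone/water (50:50) with 0.5% Tween 20. Damage was scored visually after 13 days (0 = none, 100 = total).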

The test system of experiment [2] is Solanum nigrum (SOLNI). The description is as above. Particulars: 312 h, post-emergence, 1,000 g/ha, evaluated after 13 days (100=total damage; 0=no damage), read-out: Percentage damage caused to weed species, SOLNI. The gist of the method: as §1
The test system of experiment [3] is Setaria faberi (SETFA). Described as above. As to conditions: 312 h, post-emergence, 1,000 g/ha, evaluated after 13 days (100=total damage; 0=no damage), read-out: Percentage damage caused to weed species, SETFA. The gist of the method: as §1
Experiment [4] has as its system Echinochloa crus-galli (ECHCG). The experiment is described as above. Particulars: 312 h, post-emergence, 1,000 g/ha, evaluated after 13 days (100=total damage; 0=no damage), read-out: Percentage damage caused to weed species, ECHCG. In outline:
as §1

Experiment [5] concerns Alopecurus myosuroides (ALOMY). The description is as above. Particulars: 312 h, post-emergence, 1,000 g/ha, evaluated after 13 days (100=total damage; 0=no damage), read-out: Percentage damage caused to weed species, ALOMY. The gist of the method:
as §1

Experiment [6] deals with Ipomea hederaceae (IPOHE). The experiment is described as above. As to conditions: Ipomoea hederacea, 312 h; post-emergence, 1,000 g/ha, evaluated after 13 days (100=total damage; 0=no damage); read-out: Percentage damage caused to weed species, IPOHE. The gist of the method:
as §1

Experiment [7] deals with Amaranthus retoflexus (AMARE). The experiment in a line: Pre-emergence biological efficacy, glasshouse pot test. As to conditions: Amaranthus retroflexus, 312 h; pre-emergence, 1,000 g/ha, evaluated after 13 days (100=total damage; 0=no damage); read-out: Percentage damage AMARE. In outline:
(§2)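 One day after seeds were sown in pots, compound was sprayed at 1000 or 250 g/ha. Plants were kept at 24/16 °C with 14 h light and 65% humidity and watered twice daily; damage was graded at day 13 (0 none, 100 total).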

In experiment [8] the test system is Solanum nigrum (SOLNI). The experiment is described as above. As to conditions: 312 h, pre-emergence, 1,000 g/ha, evaluated after 13 days (100=total damage; 0=no damage), read-out: Percentage damage SOLNI. The gist of the method:
as §2

Experiment [9] relates to Setaria faberi (SETFA). Described as above. As to conditions: 312 h, pre-emergence, 1,000 g/ha, evaluated after 13 days (100=total damage; 0=no damage), read-out: Percentage damage SETFA. The gist of the method: as §2
The test system of experiment [10] is Echinochloa crus-galli (ECHCG). The description is as above. Particulars: 312 h, pre-emergence, 1,000 g/ha, evaluated after 13 days (100=total damage; 0=no damage), read-out: Percentage damage ECHCG. In outline: as §2
The subject of experiment [11] is Alopecurus myosuroides (ALOMY). Described as above. As to conditions: 312 h, pre-emergence, 1,000 g/ha, evaluated after 13 days (100=total damage; 0=no damage), read-out: Percentage damage ALOMY. In outline: as §2
In experiment [12] the test system is Ipomea hederaceae (IPOHE). Described as above. As to conditions: Ipomoea hederacea, 312 h; pre-emergence, 1,000 g/ha, evaluated after 13 days (100=total damage; 0=no damage); read-out: Percentage damage IPOHE. In outline: as §2

`COC(=O)c1nc(C2CC2)nc(NC2(/C=C/c3c(F)cccc3F)CC2)c1Cl` [Compound 4-26, 5-Chloro-2-cyclopropyl-4-{1-[2-(2,6-difluoro-phenyl)ethenyl]-cyclopropylamino}-6-methoxy-carbonylpyrimidine]: the pest or weed control at 1000 g/ha in experiment [1] turned out to be 100%; in experiment [2] it was 70%; in experiment [3] it was 60%; in [4], 20%; in experiment [5], 20%; in experiment [6], 90%. Further, the pest or weed control at 1000 g/ha was 20% in [7]; 20% in [8]; 0% in [9]; 0% in experiment [10]; 10% in [11]; 50% in experiment [12].

Turning to `COC(=O)c1nc(C2CC2)nc(NC2(/C=C/c3ccccc3F)CC2)c1Cl` [Compound 4-27, 5-Chloro-2-cyclopropyl-4-{1-[2-(2-fluorophenyl)-ethenyl]-cyclo-propylamino}-6-methoxycarbonyl-pyrimidine], the pest or weed control at 1000 g/ha in [1] came to 100%; in [2] it was 80%; in experiment [3], 70%; in [4] it was 60%; in experiment [5], 10%; in experiment [6], 100%. The pest or weed control at 1000 g/ha worked out at 40% in experiment [7]; 10% in experiment [8]; 0% in [9]; 0% in experiment [10]; 10% in experiment [11]; 80% in [12].

On to `COC(=O)c1nc(C2CC2)nc(NC2(/C=C/c3ccc(Cl)cc3Cl)CC2)c1Cl` [Compound 4-28, 5-Chloro-2-cyclopropyl-4-{1-[2-(2,4-dichloro-phenyl)ethenyl]-cyclopropyl-amino}-6-methoxy-carbonylpyrimidine], for which the pest or weed control at 1000 g/ha in experiment [1] amounted to 100%; in experiment [2] it was 80%; in experiment [3], 50%; in experiment [4] it was 30%; in experiment [5] it was 10%; in experiment [6] it was 100%. Also, the pest or weed control at 1000 g/ha in experiment [7] was found to be 90%; in experiment [8], 40%; in [9] it was 10%; in experiment [10] it was 0%; in experiment [11], 10%; in experiment [12], 70%.

As for `COC(=O)c1nc(C2CC2)nc(NC2(/C=C/c3cccc(Cl)c3Cl)CC2)c1Cl` [Compound 4-29, 5-Chloro-2-cyclopropyl-4-{1-[2-(2,3-dichloro-phenyl)ethenyl]-cyclopropylamino}-6-methoxycarbonyl-pyrimidine], the pest or weed control at 1000 g/ha in experiment [1] turned out to be 90%; in experiment [2], 100%; in [3], 60%; in experiment [4], 30%; in [5] it was 10%; in experiment [6], 100%. The pest or weed control at 1000 g/ha in [7] stood at 30%; in experiment [8] it was 30%; in experiment [9], 10%; in experiment [10], 0%; in experiment [11], 10%; in experiment [12] it was 70%.

On to `COC(=O)c1nc(C2CC2)nc(NC2(/C=C/c3cccc(Cl)c3)CC2)c1Cl` [Compound 4-30, 5-Chloro-4-{1-[2-(3-chlorophenyl)-etenyl]-cyclopropylamino}-2-cyclopropyl-6-methoxycarbonyl-pyrimidine], for which the pest or weed control at 1000 g/ha in experiment [1] was 100%; in experiment [2] it was 70%; in experiment [3], 60%; in experiment [4], 30%; in experiment [5], 10%; in [6] it was 100%. The pest or weed control at 1000 g/ha worked out at 20% in experiment [7]; 0% in experiment [8]; 10% in [9]; 0% in experiment [10]; 0% in experiment [11]; 40% in [12].

For `COC(=O)c1nc(C2CC2)nc(NC2(/C=C/c3ccc(F)cc3F)CC2)c1Cl` [Compound 4-31, 5-Chloro-2-cyclopropyl-4-{1-[2-(2,4-difluoro-phenyl)-ethenyl]-cyclopropylamino}-6-methoxy-carbonylpyrimidine], the pest or weed control at 1000 g/ha in experiment [1] came to 100%; in [2] it was 90%; in [3] it was 80%; in experiment [4] it was 30%; in experiment [5], 10%; in experiment [6], 80%. The pest or weed control at 1000 g/ha in experiment [7] stood at 80%; in experiment [8], 20%; in [9], 0%; in experiment [10], 0%; in experiment [11], 0%; in [12] it was 70%.

Take `COC(=O)c1nc(C2CC2)nc(NC2CCC2)c1Cl` [Compound 4-32, 5-Chloro-4-cyclobutylamino-2-cyclopropyl-6-methoxycarbonyl-pyrimidine]: the pest or weed control at 1000 g/ha came to 100% in experiment [1]; 90% in experiment [2]; 90% in [3]; 70% in experiment [4]; 50% in experiment [5]; 100% in experiment [6]. Besides, the pest or weed control at 1000 g/ha in experiment [7] was 80%; in [8] it was 80%; in [9] it was 80%; in experiment [10] it was 50%; in experiment [11], 50%; in [12], 80%.

As to `COC(=O)c1nc(C2CC2)nc(NC2CCCC2)c1Cl` [Compound 4-33, 5-Chloro-4-cyclopentylamino-2-cyclopropyl-6-methoxycarbonyl-pyrimidine], the pest or weed control at 1000 g/ha was 80% in experiment [1]; 70% in experiment [2]; 70% in experiment [3]; 60% in [4]; 30% in experiment [5]; 70% in [6]. For the same compound, the pest or weed control at 1000 g/ha in experiment [7] was determined as 50%; in experiment [8], 20%; in [9], 10%; in [10] it was 20%; in experiment [11], 0%; in [12], 50%.

For the compound `COC(=O)c1nc(C2CC2)nc(NC2CCCC2O)c1Cl` (stereo not drawn) [Compound 4-34, 5-Chloro-2-cyclopropyl-4-(2-hydroxycyclopentylamino)-6-methoxycarbonyl-pyrimidine], the pest or weed control at 1000 g/ha in experiment [1] was 100%; in experiment [2] it was 80%; in experiment [3] it was 60%; in experiment [4], 60%; in [5] it was 20%; in experiment [6], 60%. Besides, the pest or weed control at 1000 g/ha in experiment [7] is 100%; in [8], 80%; in experiment [9], 50%; in experiment [10] it was 20%; in experiment [11] it was 30%; in experiment [12], 90%.
